Experimental data taken from PubChem BioAssay AID504438 (Sanford-Burnham Center for Chemical Genomics, 2011).
Calls of active or inactive are those of the source.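 The calls were made as follows: active = IC50 below 20 µM in the dose response test; inactive = the rest.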

Biological target: Type-1 angiotensin II receptor (Homo sapiens) (UniProt P30556)
Experiment: AGTR1 beta-arrestin recruitment antagonism – cell-based, CHO-K1 AGTR1, luminescence, set 4, selectivity assay for APJ receptor antagonist project, SAR follow-up (AID 504438)
Settings: CHO-K1 AGTR1 beta-arrestin complementation

Type-1 angiotensin II receptor (Homo sapiens), sequence (P30556 whole entry, looked up): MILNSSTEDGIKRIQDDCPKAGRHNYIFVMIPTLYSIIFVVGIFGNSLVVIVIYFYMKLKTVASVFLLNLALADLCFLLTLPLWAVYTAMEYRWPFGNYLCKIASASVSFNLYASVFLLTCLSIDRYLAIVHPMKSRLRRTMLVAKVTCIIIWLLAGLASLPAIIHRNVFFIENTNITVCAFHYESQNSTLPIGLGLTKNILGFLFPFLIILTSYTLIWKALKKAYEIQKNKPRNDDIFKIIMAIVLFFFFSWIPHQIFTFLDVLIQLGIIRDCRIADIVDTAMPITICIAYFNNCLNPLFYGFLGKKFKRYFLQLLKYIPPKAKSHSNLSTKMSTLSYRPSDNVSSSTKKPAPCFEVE

IC50, inactive:
O=C(Oc1coc(CN2CCOCC2)cc1=O)c1ccccc1 > 79 µM, Cc1ccnc(SCc2cc(=O)c(NC(=O)c3ccc([N+](=O)[O-])cc3)co2)n1 > 79 µM, Cc1cc(C)nc(SCc2cc(=O)c(OC(=O)c3ccc(-c4nccs4)cc3)co2)n1 > 79 µM, O=C(Oc1coc(CSc2ccc(Cl)cc2)cc1=O)c1ccc(Cl)c([N+](=O)[O-])c1 > 79 µM, O=C(Oc1coc(CSc2ccc(OC(F)(F)F)cc2)cc1=O)c1ccc(Cl)c([N+](=O)[O-])c1 > 79 µM, COc1ccc(SCc2cc(=O)c(OC(=O)c3ccc(Cl)c([N+](=O)[O-])c3)co2)cc1 > 79 µM, Cc1ccc(SCc2cc(=O)c(OC(=O)c3ccc(Cl)c([N+](=O)[O-])c3)co2)cc1 > 79 µM, O=C(Oc1coc(CN2CCOCC2)cc1=O)c1ccc([N+](=O)[O-])cc1 > 79 µM
